Assay [1] has as its target T1, human melanocortin-4 receptor (MC-4R) (Homo sapiens, UniProt P32245).
T1 construct: expressed in transfected cells; host or cells: HEK293
Briefly: Membrane binding assay: competition with fluorescence labeled NDP-alpha-MSH, fluorescence polarization. The conditions noted are these: HEK293 cell membrane preparations expressing human MC-4R, read-out: hMC-4R binding assay IC50. (Polarisation of emitted light reports the rotation of a fluorescent probe.)

The target of assay [2] is T1, human melanocortin-4 receptor (MC-4R). The assay is described as follows: Functional assay: agonistic activity, cAMP production in membrane preparations compared with NDP-alpha-MSH, fluorescence polarization. The format is biochemical. Conditions: for Emax: cAMP produced compared to stimulation with NDP-alpha-MSH, read-out: % activation functional assay; for EC50: cAMP production, membrane preparations from HEK293 cells expressing human MC-4R, read-out: hMC-4R functional assay EC50. Background: cAMP levels reflect the balance of adenylyl cyclase and phosphodiesterase activity.

T1 sequence (P32245 whole entry): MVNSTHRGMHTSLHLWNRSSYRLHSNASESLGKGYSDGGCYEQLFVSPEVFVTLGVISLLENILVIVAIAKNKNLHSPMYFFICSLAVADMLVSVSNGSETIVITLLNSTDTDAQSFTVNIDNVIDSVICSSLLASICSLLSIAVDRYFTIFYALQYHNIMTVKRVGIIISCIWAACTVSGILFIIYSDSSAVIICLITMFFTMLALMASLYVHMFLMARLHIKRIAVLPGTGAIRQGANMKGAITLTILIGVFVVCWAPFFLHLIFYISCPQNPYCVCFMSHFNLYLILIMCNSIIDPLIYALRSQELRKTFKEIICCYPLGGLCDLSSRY

As usually defined, the IC50 is the concentration that inhibits the measured activity by half. On to `CC[C@H](COc1cccnc1C1CCN(C(=O)[C@@H](Cc2ccc(Cl)cc2Cl)NC(=O)N2CC(C)(O)C2)CC1)N1CCCC1` [Example 99], for which the IC50 in assay [1] was not above 100 nM. Moreover, the Emax in assay [2] came out at 0%.
On the same counts, the results for `CC[C@H](COc1cccnc1C1CCN(C(=O)[C@@H](Cc2ccc(Cl)cc2Cl)NC(=O)N2CC(OC(C)=O)C2)CC1)N1CCCC1` [Example 100] are not above 100 nM and -7%.
For the compound `CC[C@H](COc1cccnc1C1CCN(C(=O)[C@@H](Cc2ccc(Cl)cc2Cl)NC(=O)N(C)CC)CC1)N(C)C` [Example 101], the IC50 in assay [1] is not above 100 nM. Besides, the Emax in assay [2] was determined as 5%.
Regarding `CC[C@H](COc1cccnc1C1CCN(C(=O)[C@@H](Cc2ccc(Cl)cc2Cl)NC(=O)N2CC(O)C2)CC1)N(C)C` [Example 102], the IC50 in assay [1] is not above 100 nM. Besides, the Emax in assay [2] is -1%.
The term EC50 denotes the concentration needed to bring the measured effect to its halfway point. For the compound `CC[C@H](COc1cccnc1C1CCN(C(=O)[C@@H](Cc2ccc(Cl)cc2Cl)NC(=O)N2CC[C@H](O)C2)CC1)N(C)C` [Example 103], the IC50 in assay [1] was not above 100 nM. In assay [2], the Emax is -9% and the EC50 was not above 100 nM.
For the compound `CC[C@H](COc1cccnc1C1CCN(C(=O)[C@@H](Cc2ccc(Cl)cc2Cl)NC(=O)N2CCC[C@H](O)C2)CC1)N(C)C` [Example 105], in assay [1], the concentration for half-maximal inhibition (IC50) was not above 100 nM. Moreover, the Emax in assay [2] was -3%.
For `CC[C@H](COc1cccnc1C1CCN(C(=O)[C@@H](Cc2ccc(Cl)cc2Cl)NC(=O)N2CCC[C@H]2CO)CC1)N(C)C` [Example 106] the same measures were not above 100 nM and -1%.
As to `CC[C@H](COc1cccnc1C1CCN(C(=O)[C@@H](Cc2ccc(Cl)cc2Cl)NC(=O)N2CCC[C@@H]2CO)CC1)N(C)C` [Example 107], the concentration for half-maximal inhibition (IC50) in assay [1] was not above 100 nM. Also, in assay [2], the Emax is -2%.
Turning to `CC[C@H](COc1cccnc1C1CCN(C(=O)[C@@H](Cc2ccc(Cl)cc2Cl)NC(=O)N2CC[C@@H](OC)C2)CC1)N(C)C` [Example 108], the IC50 in assay [1] was not above 100 nM. In addition, the Emax in assay [2] is 0%.
Turning to `CC[C@H](COc1cccnc1C1CCN(C(=O)[C@@H](Cc2ccc(Cl)cc2Cl)NC(=O)N2CC[C@H](OC)C2)CC1)N(C)C` [Example 109], the half-maximal inhibitory concentration (IC50) in assay [1] is not above 100 nM. Further, the Emax in assay [2] was -11%.
For `CC[C@H](COc1cccnc1C1CCN(C(=O)[C@@H](Cc2ccc(Cl)cc2Cl)NC(=O)N2CCC(C)(O)C2)CC1)N(C)C` (some centres unmarked) [Example 110] the same measures were not above 100 nM and 0%.
On the same counts, the results for `CC[C@H](COc1cccnc1C1CCN(C(=O)[C@@H](Cc2ccc(Cl)cc2Cl)NC(=O)N(C)CC(C)(C)O)CC1)N(C)C` [Example 111] are not above 100 nM and -23%.
Turning to `CC[C@H](COc1cccnc1C1CCN(C(=O)[C@@H](Cc2ccc(Cl)cc2Cl)NC(=O)N2CCC(C)(O)CC2)CC1)N(C)C` [Example 112], in assay [1], the IC50 is not above 100 nM. Moreover, in assay [2], the Emax was -8%.
On the same counts, the results for `CC[C@H](COc1cccnc1C1CCN(C(=O)[C@@H](Cc2ccc(Cl)cc2Cl)NC(=O)N2CCC[C@@H](O)C2)CC1)N(C)C` [Example 113] are not above 100 nM and -14%.
For `CC[C@H](COc1cccnc1C1CCN(C(=O)[C@@H](Cc2ccc(Cl)cc2Cl)NC(=O)N2CC[C@H](CO)C2)CC1)N(C)C` [Example 114], in assay [1], the IC50 is not above 100 nM. Besides, the Emax in assay [2] is -3%.
On to `CC[C@H](COc1cccnc1C1CCN(C(=O)[C@@H](Cc2ccc(Cl)cc2Cl)NC(=O)N2CC[C@@H](CO)C2)CC1)N(C)C` [Example 115], for which the IC50 in assay [1] is not above 100 nM. In assay [2], the Emax was -8%.
Regarding `CC[C@H](COc1cccnc1C1CCN(C(=O)[C@@H](Cc2ccc(Cl)cc2Cl)NC(=O)N2CC[C@@H](O)C2)CC1)N(C)C` [Example 116], the IC50 in assay [1] was not above 100 nM. The Emax in assay [2] was -1%.
For `CC[C@H](COc1cccnc1C1CCN(C(=O)[C@@H](Cc2ccc(Cl)cc2Cl)NC(=O)N2CC[C@H](OC(C)=O)C2)CC1)N(C)C` [Example 117] the same measures were not above 100 nM and 0%.
On the same counts, the results for `C#CC1(O)CN(C(=O)N[C@H](Cc2ccc(Cl)cc2Cl)C(=O)N2CCC(c3ncccc3OC[C@@H](CC)N(C)C)CC2)C1` [Example 118] are not above 100 nM and 11%.
On the same counts, the results for `CC[C@H](COc1cccnc1C1CCN(C(=O)[C@@H](Cc2ccc(Cl)cc2Cl)NC(=O)N2CC[C@@H](OC(C)=O)C2)CC1)N(C)C` [Example 120] are not above 100 nM and 5%.
As for `CC[C@H](COc1cccnc1C1CCN(C(=O)[C@@H](Cc2ccc(Cl)cc2Cl)NC(=O)N2CCC[C@@H]2C(C)(C)O)CC1)N(C)C` [Example 121], the IC50 in assay [1] is not above 100 nM. In addition, the Emax in assay [2] is -6%.
With `CC[C@H](COc1cccnc1C1CCN(C(=O)[C@@H](Cc2ccc(Cl)cc2Cl)NC(=O)N2CC(O)(C(C)C)C2)CC1)N(C)C` [Example 122], the half-inhibitory concentration (IC50) in assay [1] is not above 100 nM. In addition, the Emax in assay [2] is 0%.
On the same counts, the results for `CC[C@H](COc1cccnc1C1CCN(C(=O)[C@@H](Cc2ccc(Cl)cc2Cl)NC(=O)N2CC(O)(C3CC3)C2)CC1)N(C)C` [Example 123] are not above 100 nM and 3%.
Turning to `CC[C@H](COc1cccnc1C1CCN(C(=O)[C@@H](Cc2ccc(Cl)cc2Cl)NC(=O)N2CCCC(C)(O)C2)CC1)N(C)C` (some centres unmarked) [Example 125], the IC50 in assay [1] was not above 100 nM. In addition, the Emax in assay [2] was -8%.
On the same counts, the results for `CC[C@H](COc1cccnc1C1CCN(C(=O)[C@@H](Cc2ccc(Cl)cc2Cl)NC(=O)N2CCC[C@H]2C(C)(C)O)CC1)N(C)C` [Example 126] are not above 100 nM and -8%.
For `CC[C@H](COc1cccnc1C1CCN(C(=O)[C@@H](Cc2ccc(Cl)cc2Cl)NC(=O)N2CC[C@H]2CO)CC1)N(C)C` [Example 127] the same measures were not above 100 nM and -3%.
In the case of `CC[C@H](COc1cccnc1C1CCN(C(=O)[C@@H](Cc2ccc(Cl)cc2Cl)NC(=O)N2CCC(O)(C(F)(F)F)C2)CC1)N(C)C` (some centres unmarked) [Example 128], the concentration for half-maximal inhibition (IC50) in assay [1] is not above 100 nM. The Emax in assay [2] was -8%.
For `CC[C@H](COc1cccnc1C1CCN(C(=O)[C@@H](Cc2ccc(Cl)cc2Cl)NC(=O)N2CC(O)(C(F)(F)F)C2)CC1)N(C)C` [Example 129], the IC50 in assay [1] is not above 100 nM. Also, the Emax in assay [2] is -5%.
On the same counts, the results for `CC[C@H](COc1cccnc1C1CCN(C(=O)[C@@H](Cc2ccc(Cl)cc2Cl)NC(=O)N2CCC(O)(CC3CC3)C2)CC1)N(C)C` (some centres unmarked) [Example 130] are not above 100 nM and -2%.
Regarding `CC[C@H](COc1cccnc1C1CCN(C(=O)[C@@H](Cc2ccc(Cl)cc2Cl)NC(=O)N2CC[C@@H](N)C2)CC1)N(C)C` [Example 131], the IC50 in assay [1] was not above 100 nM. Moreover, the Emax in assay [2] was -2%.
As for `CC[C@H](COc1cccnc1C1CCN(C(=O)[C@@H](Cc2ccc(Cl)cc2Cl)NC(=O)N2CC[C@@H](N(C)C)C2)CC1)N(C)C` [Example 132], the IC50 in assay [1] is not above 100 nM. Besides, in assay [2], the Emax is -4%.
For `CC[C@H](COc1cccnc1C1CCN(C(=O)[C@@H](Cc2ccc(Cl)cc2Cl)NC(=O)N(C)C2COC2)CC1)N(C)C` [Example 133] the same measures were not above 100 nM and -6%.
On to `CC[C@H](COc1cccnc1C1CCN(C(=O)[C@@H](Cc2ccc(Cl)cc2Cl)NC(=O)N(C)CC2(C)COC2)CC1)N(C)C` [Example 134], for which, in assay [1], the 50% inhibitory concentration (IC50) is not above 100 nM. Further, the Emax in assay [2] is -2%.
In the case of `CC[C@@H](CN(C)C)Oc1cccnc1C1CCN(C(=O)[C@@H](Cc2ccc(Cl)cc2Cl)NC(=O)N(C)CC)CC1` [Example 135], the IC50 in assay [1] is not above 100 nM. Moreover, in assay [2], the Emax was found to be 3%.
On the same counts, the results for `CC[C@@H](CN(C)C)Oc1cccnc1C1CCN(C(=O)[C@@H](Cc2ccc(Cl)cc2Cl)NC(=O)N2CC(O)C2)CC1` [Example 136] are not above 100 nM and 10%.
For `CC[C@@H](CN(C)C)Oc1cccnc1C1CCN(C(=O)[C@@H](Cc2ccc(Cl)cc2Cl)NC(=O)N2CC[C@H](O)C2)CC1` [Example 137] the same measures were not above 100 nM and 8%.
For `CC[C@@H](CN(C)C)Oc1cccnc1C1CCN(C(=O)[C@@H](Cc2ccc(Cl)cc2Cl)NC(=O)N(C)CCOC)CC1` [Example 138] the same measures were not above 100 nM and 9%.
Turning to `CC[C@@H](CN(C)C)Oc1cccnc1C1CCN(C(=O)[C@@H](Cc2ccc(Cl)cc2Cl)NC(=O)N2CC[C@@H](O)C2)CC1` [Example 139], the IC50 in assay [1] was not above 100 nM. The Emax in assay [2] was -10%.
`CN1CCC[C@H](Oc2cccnc2C2CCN(C(=O)[C@@H](Cc3ccc(Cl)cc3Cl)NC(=O)N3CC[C@H](O)C3)CC2)C1` [Example 141]: the IC50 in assay [1] was not above 100 nM. Besides, the Emax in assay [2] is -3%.
With `COCCN(C)C(=O)N[C@H](Cc1ccc(Cl)cc1Cl)C(=O)N1CCC(c2ncccc2O[C@H]2CCCN(C)C2)CC1` [Example 142], in assay [1], the half-maximal inhibitory concentration (IC50) was not above 100 nM. Also, in assay [2], the Emax was -32% and the EC50 was not above 100 nM.
For `CN1CCC[C@H](Oc2cccnc2C2CCN(C(=O)[C@@H](Cc3ccc(Cl)cc3Cl)NC(=O)N3CC[C@@H](O)C3)CC2)C1` [Example 143], the IC50 in assay [1] is not above 100 nM. Also, the Emax in assay [2] was -1%.
On the same counts, the results for `CN1CCN(Cc2cc(F)cnc2C2CCN(C(=O)[C@@H](Cc3ccc(Cl)cc3Cl)NC(=O)N3CC(O)C3)CC2)CC1` [Example 144] are not above 100 nM and 2%.

The values are drawn from US20100249093A1, “Substituted Heteroarylpiperidine Derivatives As Melanocortin-4 Receptor Modulators” (SANTHERA PHARMACEUTICALS (SCHWEIZ) AG, priority 2007, published 2010).
